Data taken from the supplement of paper PMC10307832.

Key:
Test in all cases: relative viability (nuclei count vs DMSO), 5 days (fraction); higher = more cells survive
Neratinib + Foretinib = compound: CCOc1cc2ncc(C#N)c(Nc3ccc(OCc4ccccn4)c(Cl)c3)c2cc1NC(=O)/C=C/CN(C)C [Neratinib] + COc1cc2c(Oc3ccc(NC(=O)C4(C(=O)Nc5ccc(F)cc5)CC4)cc3F)ccnc2cc1OCCCN1CCOCC1 [Foretinib] (partner 0.25 µM)
Procedure, shortened: (§1)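 After 5 days of treatment, lung cancer cells in 1536-well plates were fixed and stained in a single step (final 0.05% Triton X-100, 1% formaldehyde, 1 ug/ml Hoechst) and their nuclei counted on 4× images. Treatment had been applied by pin tool the day after seeding as one drug alone or as a fixed anchor-drug dose with five library-drug doses (not always all listed) in √10 steps. Relative viability is the nuclei count of treated wells divided by that of vehicle wells, and values are medians of duplicate plates.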

Neratinib + Olaparib = compound: CCOc1cc2ncc(C#N)c(Nc3ccc(OCc4ccccn4)c(Cl)c3)c2cc1NC(=O)/C=C/CN(C)C [Neratinib] + O=C(c1cc(Cc2n[nH]c(=O)c3ccccc23)ccc1F)N1CCN(C(=O)C2CC2)CC1 [Olaparib] (partner 8 µM)
Procedure, shortened: as §1

Neratinib + Alpelisib = compound: CCOc1cc2ncc(C#N)c(Nc3ccc(OCc4ccccn4)c(Cl)c3)c2cc1NC(=O)/C=C/CN(C)C [Neratinib] + Cc1nc(NC(=O)N2CCC[C@H]2C(N)=O)sc1-c1ccnc(C(C)(C)C(F)(F)F)c1 [Alpelisib] (partner 2 µM)
Procedure, shortened: as §1

Neratinib + Pemetrexed = compound: CCOc1cc2ncc(C#N)c(Nc3ccc(OCc4ccccn4)c(Cl)c3)c2cc1NC(=O)/C=C/CN(C)C [Neratinib] + Nc1nc2[nH]cc(CCc3ccc(C(=O)N[C@@H](CCC(=O)O)C(=O)O)cc3)c2c(=O)[nH]1 [Pemetrexed] (partner 0.2 µM)
Procedure, shortened: as §1

Cell Line | relative viability (Neratinib + Foretinib; first compound 0.01 µM) | relative viability (Neratinib + Foretinib; first compound 0.03162 µM) | relative viability (Neratinib + Foretinib; first compound 0.1 µM) | relative viability (Neratinib + Foretinib; first compound 0.3162 µM) | relative viability (Neratinib + Foretinib; first compound 1 µM) | relative viability (Neratinib + Olaparib; first compound 0.01 µM) | relative viability (Neratinib + Olaparib; first compound 0.1 µM) | relative viability (Neratinib + Olaparib; first compound 0.3162 µM) | relative viability (Neratinib + Olaparib; first compound 1 µM) | relative viability (Neratinib + Alpelisib; first compound 0.01 µM) | relative viability (Neratinib + Alpelisib; first compound 0.03162 µM) | relative viability (Neratinib + Alpelisib; first compound 0.1 µM) | relative viability (Neratinib + Alpelisib; first compound 0.3162 µM) | relative viability (Neratinib + Alpelisib; first compound 1 µM) | relative viability (Neratinib + Pemetrexed; first compound 0.01 µM) | relative viability (Neratinib + Pemetrexed; first compound 0.03162 µM) | relative viability (Neratinib + Pemetrexed; first compound 0.1 µM) | relative viability (Neratinib + Pemetrexed; first compound 0.3162 µM) | relative viability (Neratinib + Pemetrexed; first compound 1 µM) | relative viability (Neratinib + Olaparib; first compound 0.03162 µM)
LC-2-ad | 0.898 | 0.989 | 0.777 | 0.532 | 0.393 | 0.777 | 0.651 | 0.756 | 0.785 | 0.923 | 0.95 | 0.734 | 0.783 | 0.312 | 0.25 | 0.258 | 0.274 | 0.282 | 0.24 | –
COR-L23 | 1.09 | 1.03 | 0.946 | 0.966 | 0.837 | 0.349 | 0.275 | 0.365 | 0.311 | 0.971 | 0.83 | 0.732 | 0.698 | 0.322 | 0.206 | 0.199 | 0.211 | 0.187 | 0.191 | 0.398
UMC-11 | 0.989 | 1.13 | 1.02 | 0.954 | – | 0.362 | 0.33 | 0.361 | 0.299 | 0.721 | 0.988 | 0.96 | 0.963 | 0.802 | 0.786 | 0.785 | 0.525 | 0.683 | 0.51 | 0.388
NCI-H1915 | 1.08 | 1.08 | 1.08 | 1.05 | 0.709 | 0.232 | 0.221 | 0.245 | 0.252 | 1.12 | 1.13 | 1.04 | 0.99 | 0.829 | 0.495 | 0.495 | 0.44 | 0.412 | 0.516 | –
NCI-H661 | 1.05 | 1.06 | 0.836 | 0.489 | 0.364 | 0.838 | 0.555 | 0.605 | 0.534 | 0.66 | 0.959 | 0.443 | 0.187 | 0.236 | 0.951 | 0.947 | 0.595 | 0.704 | 0.537 | 0.743
NCI-H2023 | 0.797 | 0.803 | 0.415 | 0.454 | 0.257 | 0.448 | 0.365 | 0.42 | 0.386 | 0.62 | 0.611 | 0.511 | 0.445 | 0.298 | 0.251 | 0.221 | 0.21 | 0.221 | 0.212 | 0.415
NCI-H2228 | – | 0.95 | 0.715 | 0.646 | 0.204 | 0.943 | 0.589 | 0.425 | 0.199 | 0.702 | 0.703 | 0.599 | 0.497 | 0.243 | 0.382 | 0.362 | 0.306 | 0.271 | 0.147 | 0.576
LXF-289 | 1 | 1 | 0.961 | 0.995 | 0.709 | 1.12 | 0.931 | 1.06 | 0.889 | 1.03 | 1.04 | 0.974 | 0.98 | 0.765 | 0.881 | 0.981 | 0.834 | 0.933 | 0.87 | 1.28
